The values below come from ChEMBL document CHEMBL1122287, “N2-1H-benzimidazol-2-yl-N4-phenyl-2,4-pyrimidinediamines and N2-1H-benzimidazol-2-yl-5,6,7,8-tetrahydro-N4-phenyl-2,4-quinazolinediamines as potential antifilarial agents” (1983).

Some results are limits rather than exact numbers.

In the first assay the test system is Litomosoides carinii. Put plainly: Antifilarial activity against circulating Litomosoides carinii microfilaria. The class given is functional. Set-up: concentration or dose not given beside the values.
Consider `CCNCc1cc(Nc2nc(Nc3nc4cc(Cl)c(Cl)cc4[nH]3)nc3c2CCCC3)ccc1OC`, for which the Reduction is recorded as under 90%.
`CCN(CC)Cc1cc(Nc2cc(C(F)(F)F)nc(Nc3nc4cc(Cl)c(Cl)cc4[nH]3)n2)ccc1OC` came in with a Reduction of under 90%.
For the molecule `CCN(CC)Cc1cc(Nc2cc(C)nc(Nc3nc4cc(Cl)c(Cl)cc4[nH]3)n2)ccc1O`, the Reduction was under 90%.
As to `CCNCc1cc(Nc2cc(C(F)(F)F)nc(Nc3nc4cc(C(=O)c5ccccc5)ccc4[nH]3)n2)ccc1OC`, the Reduction is under 90%.
Same read-out and setting: then `CCOc1ccc(Nc2cc(C)nc(Nc3nc4cc(Cl)c(Cl)cc4[nH]3)n2)cc1CN(CC)CC`, with under 90%; and `CCOc1ccc(Nc2nc(Nc3nc4cc(Cl)c(Cl)cc4[nH]3)nc3c2CCCC3)cc1CN(CC)CC`, with under 90%; and `CNCc1cc(Nc2cc(C)nc(Nc3nc4cc(Cl)c(Cl)cc4[nH]3)n2)ccc1O`, with under 90%.
Consider `CCN(CC)Cc1cc(Nc2cc(C(F)(F)F)nc(Nc3nc4cc(C(=O)c5ccccc5)ccc4[nH]3)n2)ccc1O`, for which the Reduction is under 90%.
Same read-out and setting: under `CCN(CC)Cc1cc(Nc2cc(C(F)(F)F)nc(Nc3nc4cc(C(=O)c5ccccc5)ccc4[nH]3)n2)ccc1OC` stands under 90%; under `CCOC(=O)N1CCN(Cc2cc(Nc3cc(C(F)(F)F)nc(Nc4nc5cc(Cl)c(Cl)cc5[nH]4)n3)cc(-c3ccccc3)c2O)CC1`, under 90%; under `Cc1cc(Nc2ccc(O)c(CN3CCN(C)CC3)c2)nc(Nc2nc3cc(Cl)c(Cl)cc3[nH]2)n1`, under 90%.
For `CCN(CC)Cc1cc(Nc2cc(C(F)(F)F)nc(Nc3nc4cc(Cl)c(Cl)cc4[nH]3)n2)ccc1O`, the Reduction was under 90%.
Same read-out and setting: under `CCN(CC)Cc1cc(Nc2nc(Nc3nc4cc(Cl)c(Cl)cc4[nH]3)nc3c2CCCC3)ccc1O` stands under 90%; under `CCN(CC)Cc1cc(Nc2cc(C(F)(F)F)nc(Nc3nc4cc(Cl)c(Cl)cc4[nH]3)n2)cc(-c2ccccc2)c1O`, under 90%; under `CN1CCN(Cc2cc(Nc3cc(C(F)(F)F)nc(Nc4nc5cc(C(=O)c6ccccc6)ccc5[nH]4)n3)ccc2O)CC1`, under 90%.
On the same count and under the same terms, under `Cc1cc(Nc2ccc(O)c(CN3CCCC3)c2)nc(Nc2nc3cc(Cl)c(Cl)cc3[nH]2)n1` stands under 90%.
The same measure, in the same setting: then `CCNCc1cc(Nc2cc(C)nc(Nc3nc4cc(Cl)c(Cl)cc4[nH]3)n2)ccc1OC`, with under 90%; and `CN1CCN(Cc2cc(Nc3nc(Nc4nc5cc(Cl)c(Cl)cc5[nH]4)nc4c3CCCC4)ccc2O)CC1`, with under 90%; and `CCN(CC)Cc1cc(Nc2cc(C)nc(Nc3nc4cc(Cl)c(Cl)cc4[nH]3)n2)ccc1OC`, with under 90%.
On to `CCN(CC)Cc1cc(Nc2cc(-c3ccccc3)nc(Nc3nc4cc(Cl)c(Cl)cc4[nH]3)n2)ccc1O`, for which the Reduction is recorded as under 90%.

The test system of a further assay is Litomosoides carinii. Put plainly: Antifilarial activity against Litomosoides carinii adults. The class given is functional. Set-up: concentration or dose not given beside the values.
`CCNCc1cc(Nc2nc(Nc3nc4cc(Cl)c(Cl)cc4[nH]3)nc3c2CCCC3)ccc1OC` showed a Reduction of under 60%.
Same read-out and setting: then `CCN(CC)Cc1cc(Nc2cc(C(F)(F)F)nc(Nc3nc4cc(Cl)c(Cl)cc4[nH]3)n2)ccc1OC`, with under 60%.
The molecule `CCN(CC)Cc1cc(Nc2cc(C)nc(Nc3nc4cc(Cl)c(Cl)cc4[nH]3)n2)ccc1O` had a Reduction of under 60%.
On the same count and under the same terms, under `CCNCc1cc(Nc2cc(C(F)(F)F)nc(Nc3nc4cc(C(=O)c5ccccc5)ccc4[nH]3)n2)ccc1OC` stands under 60%.
On the same count and under the same terms, under `CCOc1ccc(Nc2cc(C)nc(Nc3nc4cc(Cl)c(Cl)cc4[nH]3)n2)cc1CN(CC)CC` stands under 60%.
Still for that read-out and setting: then `CCOc1ccc(Nc2nc(Nc3nc4cc(Cl)c(Cl)cc4[nH]3)nc3c2CCCC3)cc1CN(CC)CC`, with under 60%; and `CNCc1cc(Nc2cc(C)nc(Nc3nc4cc(Cl)c(Cl)cc4[nH]3)n2)ccc1O`, with under 60%.
Regarding `CCN(CC)Cc1cc(Nc2cc(C(F)(F)F)nc(Nc3nc4cc(C(=O)c5ccccc5)ccc4[nH]3)n2)ccc1O`, the Reduction is under 60%.
Take `CCN(CC)Cc1cc(Nc2cc(C(F)(F)F)nc(Nc3nc4cc(C(=O)c5ccccc5)ccc4[nH]3)n2)ccc1OC`: the Reduction was under 60%.
Same read-out and setting: then `CCOC(=O)N1CCN(Cc2cc(Nc3cc(C(F)(F)F)nc(Nc4nc5cc(Cl)c(Cl)cc5[nH]4)n3)cc(-c3ccccc3)c2O)CC1`, with under 60%.
Same read-out and setting: then `Cc1cc(Nc2ccc(O)c(CN3CCN(C)CC3)c2)nc(Nc2nc3cc(Cl)c(Cl)cc3[nH]2)n1`, with under 60%; and `CCN(CC)Cc1cc(Nc2cc(C(F)(F)F)nc(Nc3nc4cc(Cl)c(Cl)cc4[nH]3)n2)ccc1O`, with under 60%; and `CCN(CC)Cc1cc(Nc2nc(Nc3nc4cc(Cl)c(Cl)cc4[nH]3)nc3c2CCCC3)ccc1O`, with under 60%.
Molecule `CCN(CC)Cc1cc(Nc2cc(C(F)(F)F)nc(Nc3nc4cc(Cl)c(Cl)cc4[nH]3)n2)cc(-c2ccccc2)c1O` yielded a Reduction of under 60%.
`CN1CCN(Cc2cc(Nc3cc(C(F)(F)F)nc(Nc4nc5cc(C(=O)c6ccccc6)ccc5[nH]4)n3)ccc2O)CC1` gave a Reduction of under 60%.
The same measure, in the same setting: then `Cc1cc(Nc2ccc(O)c(CN3CCCC3)c2)nc(Nc2nc3cc(Cl)c(Cl)cc3[nH]2)n1`, with under 60%; and `CCNCc1cc(Nc2cc(C)nc(Nc3nc4cc(Cl)c(Cl)cc4[nH]3)n2)ccc1OC`, with under 60%; and `CN1CCN(Cc2cc(Nc3nc(Nc4nc5cc(Cl)c(Cl)cc5[nH]4)nc4c3CCCC4)ccc2O)CC1`, with under 60%.
The molecule `CCN(CC)Cc1cc(Nc2cc(C)nc(Nc3nc4cc(Cl)c(Cl)cc4[nH]3)n2)ccc1OC` had a Reduction of under 60%.
Same read-out and setting: under `CCN(CC)Cc1cc(Nc2cc(-c3ccccc3)nc(Nc3nc4cc(Cl)c(Cl)cc4[nH]3)n2)ccc1O` stands under 60%.

Another assay concerns Brugia pahangi. The assay is described as follows: Antifilarial activity against Brugia pahangi in jirds was determined after subcutaneous administration of 100 mg/kg/day. The class given is functional, organism-based.
`CCNCc1cc(Nc2nc(Nc3nc4cc(Cl)c(Cl)cc4[nH]3)nc3c2CCCC3)ccc1OC`: the Reduction entry is “Not significant”.
Same read-out and setting: then `CCN(CC)Cc1cc(Nc2cc(C(F)(F)F)nc(Nc3nc4cc(Cl)c(Cl)cc4[nH]3)n2)ccc1OC`, with “Not significant”; and `CCN(CC)Cc1cc(Nc2cc(C)nc(Nc3nc4cc(Cl)c(Cl)cc4[nH]3)n2)ccc1O`, with “Not significant”.
Turning to `CCNCc1cc(Nc2cc(C(F)(F)F)nc(Nc3nc4cc(C(=O)c5ccccc5)ccc4[nH]3)n2)ccc1OC`, the Reduction result is “Not significant”.
Turning to `CCOc1ccc(Nc2cc(C)nc(Nc3nc4cc(Cl)c(Cl)cc4[nH]3)n2)cc1CN(CC)CC`, the Reduction entry was “Not significant”.
Still for that read-out and setting: then `CCOc1ccc(Nc2nc(Nc3nc4cc(Cl)c(Cl)cc4[nH]3)nc3c2CCCC3)cc1CN(CC)CC`, with “Not significant”; and `CNCc1cc(Nc2cc(C)nc(Nc3nc4cc(Cl)c(Cl)cc4[nH]3)n2)ccc1O`, with “Not significant”; and `CCN(CC)Cc1cc(Nc2cc(C(F)(F)F)nc(Nc3nc4cc(C(=O)c5ccccc5)ccc4[nH]3)n2)ccc1O`, with “Not significant”.
Consider `CCN(CC)Cc1cc(Nc2cc(C(F)(F)F)nc(Nc3nc4cc(C(=O)c5ccccc5)ccc4[nH]3)n2)ccc1OC`, for which the Reduction result was “Not significant”.
On the same count and under the same terms, then `CCOC(=O)N1CCN(Cc2cc(Nc3cc(C(F)(F)F)nc(Nc4nc5cc(Cl)c(Cl)cc5[nH]4)n3)cc(-c3ccccc3)c2O)CC1`, with “Not significant”.
Regarding `Cc1cc(Nc2ccc(O)c(CN3CCN(C)CC3)c2)nc(Nc2nc3cc(Cl)c(Cl)cc3[nH]2)n1`, the Reduction result is “Not significant”.
The same measure, in the same setting: then `CCN(CC)Cc1cc(Nc2cc(C(F)(F)F)nc(Nc3nc4cc(Cl)c(Cl)cc4[nH]3)n2)ccc1O`, with “Not significant”; and `CCN(CC)Cc1cc(Nc2nc(Nc3nc4cc(Cl)c(Cl)cc4[nH]3)nc3c2CCCC3)ccc1O`, with “Not significant”; and `CCN(CC)Cc1cc(Nc2cc(C(F)(F)F)nc(Nc3nc4cc(Cl)c(Cl)cc4[nH]3)n2)cc(-c2ccccc2)c1O`, with “Not significant”.
For `CN1CCN(Cc2cc(Nc3cc(C(F)(F)F)nc(Nc4nc5cc(C(=O)c6ccccc6)ccc5[nH]4)n3)ccc2O)CC1`, the Reduction entry was “Not significant”.
Same read-out and setting: then `Cc1cc(Nc2ccc(O)c(CN3CCCC3)c2)nc(Nc2nc3cc(Cl)c(Cl)cc3[nH]2)n1`, with “Not significant”; and `CCNCc1cc(Nc2cc(C)nc(Nc3nc4cc(Cl)c(Cl)cc4[nH]3)n2)ccc1OC`, with “Not significant”.
Turning to `CN1CCN(Cc2cc(Nc3nc(Nc4nc5cc(Cl)c(Cl)cc5[nH]4)nc4c3CCCC4)ccc2O)CC1`, the Reduction entry is “Not significant”.
Same read-out and setting: under `CCN(CC)Cc1cc(Nc2cc(C)nc(Nc3nc4cc(Cl)c(Cl)cc4[nH]3)n2)ccc1OC` stands “Not significant”; under `CCN(CC)Cc1cc(Nc2cc(-c3ccccc3)nc(Nc3nc4cc(Cl)c(Cl)cc4[nH]3)n2)ccc1O`, “Not significant”.
